The values that follow are results of earlier work, collected in patent publication US20120093928A1, “ORAL METAXALONE COMPOSITIONS” (RANBAXY LABORATORIES LIMITED, priority 2007, published 2012).

On to `Cc1cc(C)cc(OCC2CNC(=O)O2)c1` (centres unmarked) [metaxalone, 5-[(3,5-dimethyphenoxy)methyl]-2-oxazolidinone], for which the plasma half-life (in vivo) is 2 to 3 h. For the setting “oral, single 800 mg dosage”, the “time to mean peak plasma concentrations” value was 2 h.
